For assay [1], the system named is Radical scavenging activity. Briefly: Antioxidant activity assessed as DPPH radical scavenging activity at 0.5 mM after 30 min. The assay is classed as functional. Background: The DPPH test is a chemical assay of radical scavenging.
A short description of assay [2]: Antioxidant activity assessed as superoxide anion radical scavenging activity at 1 mM. The assay is classed as functional.

Take `COc1ccc(CNC(=O)Cn2nc3c(c2C)N(C)S(=O)(=O)c2ccccc2-3)c(OC)c1`: the Activity in assay [1] is 27.3%; in assay [2], 58.3%.

As for `COc1ccc(CNC(=O)Cn2nc3c(c2C)N(C)S(=O)(=O)c2ccccc2-3)cc1`, the results for the Activity in assay [1] and in assay [2] were 23.7% and 33.1%, respectively.

Turning to `Cc1c2c(nn1CC(=O)NCc1ccccc1F)-c1ccccc1S(=O)(=O)N2C`, the Activity stood at 20.2% in assay [1] and 48.5% in assay [2].

For the molecule `COc1ccc(O)c(C(C)(C)C)c1.COc1ccc(O)cc1C(C)(C)C`, the Activity in assay [1] was found to be 92.6%.

With `Cc1c2c(nn1CC(=O)NCc1ccccc1Cl)-c1ccccc1S(=O)(=O)N2C`, the Activity in assay [1] was 17.1%; in assay [2], 52.5%.

In the case of `Cc1c2c(nn1CC(=O)Nc1cccc(Br)c1)-c1ccccc1S(=O)(=O)N2C`, the results for the Activity in assay [1] and in assay [2] were 26.1% and 47.1%, respectively.

For `CCCOC(=O)c1cc(O)c(O)c(O)c1`, the Activity in assay [2] was 90.8%.

Take `COc1ccccc1NC(=O)Cn1nc2c(c1C)N(C)S(=O)(=O)c1ccccc1-2`: the Activity in assay [1] amounted to 26.9%; in assay [2], 53.8%.

As for `Cc1ccccc1CNC(=O)Cn1nc2c(c1C)N(C)S(=O)(=O)c1ccccc1-2`, the Activity is 15.2% in assay [1] and 81.5% in assay [2].

On to `Cc1c2c(nn1CC(=O)Nc1ccccc1)-c1ccccc1S(=O)(=O)N2C`, for which the results for the Activity in assay [1] and in assay [2] were 18.3% and 28.6%, respectively.

Take `Cc1c2c(nn1CC(=O)Nc1ccccc1F)-c1ccccc1S(=O)(=O)N2C`: the Activity was determined as 23.1% in assay [1] and 47.7% in assay [2].

As for `Cc1ccc(CNC(=O)Cn2nc3c(c2C)N(C)S(=O)(=O)c2ccccc2-3)cc1`, the Activity amounted to 17.9% in assay [1] and 57.8% in assay [2].

`Cc1c2c(nn1CC(=O)Nc1ccc(Cl)cc1)-c1ccccc1S(=O)(=O)N2C`: the Activity in assay [1] was found to be 25.4%; in assay [2] it was 55.6%.

Regarding `Cc1c2c(nn1CC(=O)Nc1ccccc1Br)-c1ccccc1S(=O)(=O)N2C`, the values for the Activity in assay [1] and in assay [2] were 27.6% and 79.1%, respectively.

Regarding `Cc1c2c(nn1CC(=O)Nc1ccc(F)cc1)-c1ccccc1S(=O)(=O)N2C`, the Activity in assay [1] was 22.1%; in assay [2], 44.1%.

For `COc1cccc(NC(=O)Cn2nc3c(c2C)N(C)S(=O)(=O)c2ccccc2-3)c1`, the Activity in assay [1] worked out at 20.2%; in assay [2], 47.4%.

Turning to `Cc1c2c(nn1CC(=O)NCc1ccc(Cl)cc1)-c1ccccc1S(=O)(=O)N2C`, the Activity in assay [1] came to 16.7%; in assay [2] it was 47.2%.

For `Cc1c2c(nn1CC(=O)NCc1ccccc1Br)-c1ccccc1S(=O)(=O)N2C`, the Activity in assay [1] came to 21.1%; in assay [2], 64%.

In the case of `COc1cccc(CNC(=O)Cn2nc3c(c2C)N(C)S(=O)(=O)c2ccccc2-3)c1`, the Activity in assay [1] is 16.2%; in assay [2] it was 25.9%.

For the molecule `Cc1c2c(nn1CC(=O)Nc1ccccc1Cl)-c1ccccc1S(=O)(=O)N2C`, the Activity is 21.8% in assay [1] and 61% in assay [2].

Take `Cc1c2c(nn1CC(=O)NCc1cccc(Br)c1)-c1ccccc1S(=O)(=O)N2C`: the Activity in assay [1] stood at 14.1%; in assay [2], 32.5%.

For `COc1ccc(NC(=O)Cn2nc3c(c2C)N(C)S(=O)(=O)c2ccccc2-3)c(OC)c1`, the Activity in assay [1] turned out to be 39.8%; in assay [2] it was 78.3%.

Take `COc1ccccc1CNC(=O)Cn1nc2c(c1C)N(C)S(=O)(=O)c1ccccc1-2`: the Activity in assay [1] is 25.6%; in assay [2], 38.8%.

Turning to `Cc1c2c(nn1CC(=O)NCc1ccc(F)cc1)-c1ccccc1S(=O)(=O)N2C`, the Activity in assay [1] came to 15.8%; in assay [2] it was 42.3%.

The values above are taken from ChEMBL document CHEMBL3046411, “Synthesis and antioxidant studies of novel N-substituted benzyl/phenyl-2-(3,4-dimethyl-5,5-dioxidopyrazolo[4,3-c][1,2]benzothiazin-2(4H)-yl)acetamides” (Med Chem Res, 2013).
